Results from ChEMBL document CHEMBL1126397, “Synthesis of acid stable 5-o-fluoromethyl phosphonates of nucleosides. Evaluation as inhibitors of reverse transcriptase” (Bioorg Med Chem Lett, 1992).
In brackets after ≈: the same amount, converted by molar mass.

Assays:
[1] = target: T1, Human immunodeficiency virus type 1 reverse transcriptase (Human immunodeficiency virus 1, UniProt Q72547); assay: The compound was evaluated as inhibitor of recombinant HIV-l reverse transcriptase
[2] = target: T2, Avian myoblastosis virus polyprotein II (Avian myeloblastosis virus, UniProt Q86831); assay: Inhibitor of avian myeloblastosis virus AMV reverse transcriptase
T2 sequence (Q86831 whole entry): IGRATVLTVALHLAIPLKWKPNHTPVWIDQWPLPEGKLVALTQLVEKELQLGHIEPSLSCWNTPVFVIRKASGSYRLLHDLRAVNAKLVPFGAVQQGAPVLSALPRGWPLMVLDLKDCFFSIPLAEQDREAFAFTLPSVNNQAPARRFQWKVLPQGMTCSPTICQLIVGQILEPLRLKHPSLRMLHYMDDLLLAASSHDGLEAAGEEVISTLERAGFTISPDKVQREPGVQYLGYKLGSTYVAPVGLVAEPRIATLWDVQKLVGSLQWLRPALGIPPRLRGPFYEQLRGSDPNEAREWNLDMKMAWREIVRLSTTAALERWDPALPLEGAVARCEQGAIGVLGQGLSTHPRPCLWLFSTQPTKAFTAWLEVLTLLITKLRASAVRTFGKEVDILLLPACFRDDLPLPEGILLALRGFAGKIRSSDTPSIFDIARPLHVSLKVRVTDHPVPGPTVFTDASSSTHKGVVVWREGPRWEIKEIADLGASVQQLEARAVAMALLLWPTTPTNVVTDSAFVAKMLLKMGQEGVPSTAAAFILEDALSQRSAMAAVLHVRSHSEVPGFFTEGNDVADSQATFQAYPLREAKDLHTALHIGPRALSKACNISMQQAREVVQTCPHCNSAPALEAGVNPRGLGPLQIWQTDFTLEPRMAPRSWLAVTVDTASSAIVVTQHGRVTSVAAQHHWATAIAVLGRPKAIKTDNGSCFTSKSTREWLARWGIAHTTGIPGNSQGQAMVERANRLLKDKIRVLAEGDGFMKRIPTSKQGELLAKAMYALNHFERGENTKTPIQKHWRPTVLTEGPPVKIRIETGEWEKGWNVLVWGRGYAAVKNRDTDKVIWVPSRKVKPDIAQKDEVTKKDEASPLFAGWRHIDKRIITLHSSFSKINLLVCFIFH

[3] = tested on: Avian myeloblastosis virus; assay: The compound was evaluated as inhibitor of avian myeloblastosis virus (AMV) reverse transcriptase; format: functional, organism-based
[4] = tested on: Avian myeloblastosis virus; assay: Compound was evaluated as inhibitor of avian myeloblastosis virus (AMV) reverse transcriptase; format: functional, organism-based
[5] = target: T1, Human immunodeficiency virus type 1 reverse transcriptase; assay: Compound was evaluated as inhibitor of recombinant HIV-l reverse transcriptase

SMILES	IC50 [1]	IC50 [3]	also measured
Cc1cn(C2CC(N=[N+]=[N-])C(COP(=O)(O)C(F)F)O2)c(=O)[nH]c1=O (stereo not drawn)	55.1 µM		
Cc1cn(C2CC(N=[N+]=[N-])C(COP(=O)(O)C(F)(F)F)O2)c(=O)[nH]c1=O (stereo not drawn)	30.1 µM		
O=c1[nH]c(=O)n([C@H]2C[C@H](O)[C@@H](COP(=O)(O)C(F)(F)F)O2)cc1F	47.6 µM		
Cc1cn(C2CC(N=[N+]=[N-])C(COP(=O)(O)CF)O2)c(=O)[nH]c1=O (stereo not drawn)	110 µM		
Nc1ncnc2c1ncn2C1O[C@H](COP(=O)(O)C(F)F)[C@@H](O)[C@H]1O (stereo partly drawn)			IC50 [2]: > 1050 µM
O=c1ccn(C2O[C@H](COP(=O)(O)C(F)F)[C@@H](O)[C@H]2O)c(=O)[nH]1 (stereo partly drawn)			IC50 [2]: > 1120 µM
Nc1nc(O)c2ncn(C3O[C@H](COP(=O)(O)C(F)F)[C@@H](O)[C@H]3O)c2n1 (stereo partly drawn)		150 mg/L (≈ 378 µM)	
Cc1cn([C@H]2C[C@H](N=[N+]=[N-])[C@@H](COP(=O)(O)O)O2)c(=O)[nH]c1=O [AZIDOTHYMIDINE MONOPHOSPHATE]	> 2880 µM	900 mg/L	
Cc1cn([C@H]2C[C@H](N=[N+]=[N-])[C@@H](CO[P@](=O)(O)O[P@](=O)(O)OP(=O)(O)O)O2)c(=O)[nH]c1=O [ZIDOVUDINE TRIPHOSPHATE]	0.237 µM	0.06 mg/L	
Cc1cn([C@H]2C[C@H](N=[N+]=[N-])[C@@H](CO)O2)c(=O)[nH]c1=O [ZIDOVUDINE]			IC50 [4]: 600 mg/L (≈ 2250 µM); IC50 [5]: 2990 µM
